Measured values: US9815835B2, “Substituted polycyclic carbamolypyridone derivative” (priority 2009, dated 2017)

What was measured:
[1] = biological target: cap-dependent endonuclease (RNP fraction containing PB1•PB2•PA complex) (Influenza A virus, UniProt P15659); experiment: biochemical; settings: RNP from A/WSN/33 virus, capped Cy3/BHQ2 30mer RNA substrate, 60 minutes at room temperature; read-out: CEN IC50
influenza virus = experiment: microbe, parasite or virus in culture; type: cell-based, influenza virus (MDBK or MDCK cells); settings: unidentified influenza virus, 72 h, read-out: CPE EC50, effective concentration to achieve 50% CPE inhibition, 3 days incubation, WST-8

| Structure (SMILES) | IC50 [1] [nM] | EC50 (influenza virus) [nM] |
| --- | --- | --- |
| COCCN1CN(C2c3ccccc3CSc3ccc(Cl)cc32)n2ccc(=O)c(O)c2C1=O (stereo not drawn) [Example 333] | 21 | 425 |
| CN1CN(C2c3ccccc3CSc3cc(F)ccc32)n2ccc(=O)c(O)c2C1=O (stereo not drawn) [Example 355] | 40 | 75 |
| COCCN1CN(C2c3ccccc3CSc3c(Cl)cccc32)n2ccc(=O)c(O)c2C1=O (stereo not drawn) [Example 335] | 19 | 16 |
| Cc1cc(CN2CN(C3c4ccccc4CSc4ccccc43)n3ccc(=O)c(O)c3C2=O)no1 (stereo not drawn) [Example 305] | 59 | 103 |
| CCC(COC)N1CN(C(c2ccccc2)c2ccccc2)n2ccc(=O)c(O)c2C1=O (stereo not drawn) [Example 228] | 243 | 141 |
| COCCN1CN(C2c3ccccc3OCc3c(F)cccc32)n2ccc(=O)c(O)c2C1=O (stereo not drawn) [Example 405] | 74 | 51 |
| COc1ccc(N2CN(C3c4ccccc4CSc4ccccc43)n3ccc(=O)c(O)c3C2=O)cc1 (stereo not drawn) [Example 296] | 130 | 397 |
| CC(C)N1CN(C2c3ccccc3CCc3ccccc32)n2cc(CF)c(=O)c(O)c2C1=O [Example 508] | 36 | 56 |
| O=C1c2c(O)c(=O)ccn2N(C2c3ccccc3CSc3ccccc32)CN1[C@@H]1CCN(CCO)C1 (stereo partly drawn) [Example 290] | 67 | 492 |
| COC(OC)C1N(C(C)C)C(=O)c2c(O)c(=O)ccn2N1C1c2ccccc2CCc2ccccc21 (stereo not drawn) [Example 520] | 212 | 17 |
| C[C@@H](N1CN([C@H]2c3ccc(Cl)cc3CSc3ccccc32)n2ccc(=O)c(O)c2C1=O)C(F)(F)F [Example 446] | 7 | 11 |
| CC(C)(O)CN1CN(C2c3ccccc3CSc3ccccc32)n2ccc(=O)c(O)c2C1=O (stereo not drawn) [Example 371] | 161 | 74 |
| O=C1c2c(O)c(=O)ccn2C(C(c2ccccc2)c2ccccc2)N2CCCCN12 (stereo not drawn) [Example 178] | 61 | 75 |
| CN(CCN1CN(C(c2ccccc2)c2ccccc2)n2ccc(=O)c(O)c2C1=O)S(C)(=O)=O [Example 139] | 189 | 741 |
| CN(C)CCN1CN(C2c3ccccc3CCc3ccccc32)n2ccc(=O)c(O)c2C1=O [Example 478] | 88 | 129 |
| CC(C)N1CN(C2c3cc(F)ccc3SCc3c(Cl)cccc32)n2ccc(=O)c(O)c2C1=O (stereo not drawn) [Example 285] | 44 | 17 |
| CN1C[C@H](C2c3ccccc3CSc3ccccc32)n2cc(C(=O)O)c(=O)c(O)c2C1=O (stereo partly drawn) [Example 560] | 27 | 173 |
| CC(CN1CCN(C)CC1)N1CN(C2c3ccccc3CSc3ccccc32)n2ccc(=O)c(O)c2C1=O (stereo not drawn) [Example 485] | 221 | 424 |
| O=C1c2c(O)c(=O)ccn2C(C2c3ccccc3CCc3ccccc32)CN1c1cccnc1 (stereo not drawn) [Example 570] | 81 | 2050 |
| CC(C)N1C(=O)c2c(O)c(=O)ccn2N(C2c3ccccc3CCc3ccccc32)C1CCO (stereo not drawn) [Example 548] | 86 | 38 |
| O=C(O)c1cn2c(c(O)c1=O)C(=O)N(CC1CCCCO1)C[C@@H]2C(c1ccccc1)c1ccccc1 (stereo partly drawn) [Example 26] | 108 | 547 |

| Structure (SMILES) | IC50 [1] [nM] | EC50 (influenza virus) [nM] |
| --- | --- | --- |
| O=C1c2c(O)c(=O)ccn2N(C2c3ccccc3CCc3ccccc32)CN1[C@@H]1CCN(CCO)C1 [Example 254] | 135 | 564 |
| CC(CN1CCSCC1)N1CN(C2c3ccccc3CCc3ccccc32)n2ccc(=O)c(O)c2C1=O (stereo not drawn) [Example 488] | 151 | 27 |
| CC(C)N1CN(C2c3ccccc3CCc3c(CO)cccc32)n2ccc(=O)c(O)c2C1=O (stereo not drawn) [Example 384] | 153 | 293 |
| CC(C)N1CN(C2c3ccccc3CSc3ccc(F)cc32)n2ccc(=O)c(O)c2C1=O (stereo not drawn) [Example 329] | 58 | 23 |
| COC[C@H](C)N1C(=O)c2c(O)c(=O)ccn2N(C2c3ccccc3CCc3ccccc32)[C@@H]1CO [Example 555] | 23 | 12 |
| O=C1c2c(O)c(=O)ccn2N(C2c3ccccc3CCc3ccccc32)CN1Cc1ccccn1 [Example 264] | 64 | 128 |
| CC(C)N1C(=O)c2c(O)c(=O)ccn2N(C2c3ccccc3CCc3ccccc32)C1c1ccc(Cl)cc1 (stereo not drawn) [Example 527] | 127 | 88 |
| CC(C)N1C[C@H](C2c3ccccc3CCc3ccccc32)n2ccc(=O)c(O)c2C1=O [Example 576] | 63 | 27 |
| CC(C)N1CN(C2c3ccccc3OCc3c(F)cccc32)n2ccc(=O)c(O)c2C1=O (stereo not drawn) [Example 407] | 35 | 17 |
| CC(C)N1C(=O)c2c(O)c(=O)ccn2N(C2c3ccccc3CCc3ccccc32)C1CCC(F)(F)F (stereo not drawn) [Example 521] | 191 | 15 |
| CN1CN(C2c3ccccc3CSc3ccc(Cl)cc32)n2ccc(=O)c(O)c2C1=O (stereo not drawn) [Example 331] | 45 | 335 |
| C[C@@H](N1CN([C@@H]2c3ccccc3SCc3c(C#N)cccc32)n2ccc(=O)c(O)c2C1=O)C(F)(F)F [Example 476] | 31 | 14 |
| CC(C)CN1CC(N2CN(C3c4ccccc4CCc4ccccc43)n3ccc(=O)c(O)c3C2=O)C1 [Example 248] | 103 | 489 |
| CC(C)N1CN(C(c2cccs2)c2cccs2)n2ccc(=O)c(O)c2C1=O [Example 244] | 249 | 108 |
| CCN1CN(C2c3ccccc3CCc3ccccc32)n2ccc(=O)c(O)c2C1=O [Example 266] | 43 | 85 |
| COCCN1C[C@H](C(c2ccccc2)c2ccccc2)n2cc(C(=O)O)c(=O)c(O)c2C1=O [Example 2] | 48 | 293 |
| CC(C)N1CN(C(c2ccccc2)c2ccccc2)n2c(N)cc(=O)c(O)c2C1=O [Example 581] | 83 | 480 |
| CN(C)CCN1CC(C2c3ccccc3CCc3ccccc32)n2ccc(=O)c(O)c2C1=O (stereo not drawn) [Example 565] | 154 | 726 |
| COCCCC1N(C(C)C)C(=O)c2c(O)c(=O)ccn2N1C1c2ccc(Cl)cc2CCc2cc(Cl)ccc21 (stereo not drawn) [Example 524] | 57 | 26 |
| CC(C)N1CN(Cc2cccc3ccsc23)n2ccc(=O)c(O)c2C1=O [Example 204] | 299 | 2360 |
| O=C1c2c(O)c(=O)ccn2N(C2c3ccccc3CCc3ccccc32)CN1C1CC1 [Example 108] | 37 | 19 |

| Structure (SMILES) | IC50 [1] [nM] | EC50 (influenza virus) [nM] |
| --- | --- | --- |
| CN1CCC(N2CN(C3c4ccccc4CCc4ccccc43)n3ccc(=O)c(O)c3C2=O)CC1 [Example 253] | 235 | 280 |
| COc1ccc2c(c1)CCc1ccccc1C2N1CN(C(C)C)C(=O)c2c(O)c(=O)ccn21 (stereo not drawn) [Example 278] | 205 | 74 |
| O=C1c2c(O)c(=O)ccn2N(C(c2ccccc2)c2ccccc2)CN1CCNS(=O)(=O)c1ccccc1 [Example 143] | 224 | 333 |
| O=C(O)c1cn2c(c(O)c1=O)C(=O)N(CCOc1ccc(F)cc1)C[C@@H]2C(c1ccccc1)c1ccccc1 [Example 183] | 74 | 2370 |
| C[C@@H](N1CN(C2c3ccccc3COc3c(Cl)cccc32)n2ccc(=O)c(O)c2C1=O)C(F)(F)F (stereo partly drawn) [Example 411] | 46 | 14 |
| CN1C(C(c2ccccc2)c2ccccc2)n2ccc(=O)c(O)c2C(=O)N1CCOc1ccc(F)cc1 (stereo not drawn) [Example 497] | 215 | 511 |
| O=C1c2c(O)c(=O)ccn2N(C2c3ccccc3CSc3ccccc32)CN1C1CC(F)(F)C1 (stereo not drawn) [Example 324] | 107 | 35 |
| CC(C)N1C[C@H](C2c3ccccc3CSc3ccccc32)n2ccc(=O)c(O)c2C1=O (stereo partly drawn) [Example 561] | 73 | 8 |
| CCN1CN(C2c3ccccc3CSc3c(Cl)cccc32)n2ccc(=O)c(O)c2C1=O (stereo not drawn) [Example 330] | 26 | 19 |
| O=C1c2c(O)c(=O)ccn2N(C2c3ccccc3CCc3ccccc32)C(CO)N1CCO (stereo not drawn) [Example 554] | 65 | 465 |
| CC(C)N1CN(C2c3ccccc3CCc3cc(Cl)ccc32)n2ccc(=O)c(O)c2C1=O (stereo not drawn) [Example 283] | 28 | 21 |
| CN1CN(C2c3ccccc3CSc3ccc(F)cc32)n2ccc(=O)c(O)c2C1=O (stereo not drawn) [Example 349] | 53 | 75 |
| O=C1c2c(O)c(=O)ccn2N(C2c3ccccc3CSc3c(Cl)cccc32)CN1C1CC1 (stereo not drawn) [Example 341] | 16 | 27 |
| CC(C)N1CN(C2c3ccccc3CSc3cc(Cl)ccc32)n2ccc(=O)c(O)c2C1=O (stereo not drawn) [Example 327] | 92 | 24 |
| CC(C)N1C(=O)c2c(O)c(=O)ccn2N(C2c3ccccc3CCc3ccccc32)C1CO (stereo not drawn) [Example 547] | 32 | 27 |
| O=C1NCC(C2c3ccccc3CCc3ccccc32)n2ccc(=O)c(O)c21 (stereo not drawn) [Example 563] | 49 | 464 |
| C[C@@H](N1CN(C2c3ccccc3CSc3ccccc32)n2ccc(=O)c(O)c2C1=O)C(C)(C)C (stereo partly drawn) [Example 320] | 45 | 11 |
| COCCN1CN(C2c3ccccc3CSc3cc(F)ccc32)n2ccc(=O)c(O)c2C1=O (stereo not drawn) [Example 337] | 58 | 28 |
| CC(C)N1CN(C2c3ccccc3COc3ccc(Cl)cc32)n2ccc(=O)c(O)c2C1=O (stereo not drawn) [Example 398] | 34 | 118 |
| CC(CN1CCCCC1)N1CN(C2c3ccccc3CCc3ccccc32)n2ccc(=O)c(O)c2C1=O (stereo not drawn) [Example 486] | 140 | 72 |
| C[C@H](N1CN([C@@H]2c3ccccc3SCc3c(F)cccc32)n2ccc(=O)c(O)c2C1=O)C(F)(F)F [Example 452] | 177 | 16 |
